# Assay results: patent publication US9670139B2, “Telomerase activating compounds and methods of use thereof” (BEN-GURION UNIVERSITY OF THE NEGEV RESEARCH AND DEVELOPMENT …, priority 2007, dated 2017)
# Numbered stars: 1 amine (or outer) side, 2 acyl side, 3 side chain; on linkers, the order of the positions; unused ones are H or OH. Bridge positions count the residues as written; N and C are the ends. Square brackets hold non-standard residues; d marks the D form. Peptide text beside a SMILES is read from it. I, II: the chains in the order shown. Actinocin(9to1) = Cc1c2oc3c(C)ccc(C(=O)[*:1])c3nc-2c(C(=O)[*:2])c(N)c1=O; NMeV = CN[C@H](C(=O)O)C(C)C; Sar = CNCC(=O)O
# What was measured:
# embryos = assay: Prevention of camptothecin damage to embryo development in rats; assay type: in vivo, rat; conditions: embryos at days 14-15
# Experimental: The ability of compounds of the present invention to prevent the damaging effects of drugs on embryonic development was examined in rats. Female rats were treated with camptothecin (CPT) (5 mg/kg), an anti-cancer drug, and then injected with Compound 68 (6 mg/kg) or vehicle (0.1%). Embryos were removed at days 14-15 of pregnancy and examined for damage.
# C. elegans = assay: Lifespan extension of nematodes (C. elegans); assay type: in vivo; conditions: for Lifes pan ext. %: nematodes grown with compound at 50 micromolar; for Lifes pan ext. % / Lifespan %: mean lifespan versus control; for Lifespan % / Lifespan extension (%): 50 micromolar; for Lifespan extension (%): Table 2, versus untreated controls
# Experimental: Nematodes (C. elegans) were administered tri-phenyl telomerase-activating compounds presented in the following tables, and telomerase activity and/or expression was measured in terms of nematode lifespan extension. Nematodes were grown with the activators at 50 micromolar concentration, and the mean, maximum and half-life for Compound 68 and Compound 77, two representative molecules, was measured versus that of the control (FIG. 8). Values represent mean lifespan.
# Survival of the C. elegans, a nematode that normally survives for 12-14 days, represents an acceptable model for studying life extension. Nematodes were administered tri-phenyl telomerase-activating compounds and their effect on the nematode lifespan extension was determined. Nematodes were grown with the activators at a concentration of 50 micromolar, and mean, maximum and half-life were measured in comparison with untreated controls. Lifespan increased by 13-43% (Table 2), and the median lifespan increased approximately 2-fold (from 12 days to 22 days, as shown in FIG. 8).
# telomerase [1] = target: telomerase (Homo sapiens, UniProt O14746); assay: Telomerase activity in RPE cells (quantitative telomerase detection kit, real time PCR); assay type: cell-based; design: endogenous in cells; host or cells: human retinal pigmented epithelial (RPE) cells; conditions: FIG. 7B
# Text: FIG. 7: A. The effect of compounds of the present invention on human retinal pigmented epithelial cells under oxidative stress. B. The effect of compounds on telomerase activity in RPE cells (measured by a quantitative telomerase detection kit-real time PCR).
# Chronic exposure of human retinal pigmented epithelial (RPE) cells to oxidative stress predisposes them to the development of age-related macular degeneration (AMD). Human RPE cells were exposed to oxidative stress by treatment with H2O2 (1 mM) for 24 hours, and H2O2 (0.5 mM) for another 24 hours. The cells were then treated daily for two days with the indicated compounds in the absence of H2O2. Increased cell growth was observed as a consequence of treatment with the compounds (FIG. 7A). Telomerase activity was enhanced in RPE cells treated with compounds 68 and 79 by 30- and 50-fold, respectively (FIG. 7B).
# telomerase mRNA = assay: Northern blot of telomerase mRNA with hTERT probe; assay type: cell-based, human
# Experimental: Experiments were also performed to determine the effect of compounds of the present invention on the telomerase mRNA level (including the full and spliced variant telo-mRNAs). Cells were treated with a single dose of […] Compound 68 for various intervals (1-24 h). Total RNA extracts were prepared, and equal RNA concentrations were analyzed by northern blotting with a specific hTERT probe. […] The increased expression of telomerase was specific since no effect on GAPDH mRNA was observed (lower panel).
# telomerase [2] = assay: Activation of telomerase expression in rat endometrial cells after subcutaneous injection; assay type: in vivo; conditions: 6 mg/kg subcutaneously, 24 h
# Experimental: Female rats in diestrus (the stage at which the epithelial layer in the rat endometrium undergoes degradation) were injected subcutaneously with 6 mg/kg of Compound 68, or with a vehicle. The rats were sacrificed 24 h later and endometrial sections were prepared from the uterine horns of treated and untreated rats and analyzed by histological procedures and by immunohistochemical staining Endometrial slices were stained by hematoxylin-eosin. […] In addition, morphologically, the endometrial tissue resembled the structure of the proliferating stages (proestrus and estrus) (FIG. 9A,B). Activation of telomerase expression in the endometrial cells of treated rats was examined by immunohistochemistry with anti-telomerase antibody (FIG. 9C-F). […] In addition, telomerase activity was measured in nuclear extracts derived from the endometrium of the various treatment groups. […] In some embodiments of the invention, the data support a role for the treatment of endometriosis with the compounds of this invention.
# telomerase protein = assay: Western blot of telomerase protein level in treated glioblastoma cells; assay type: cell-based, human; conditions: 1 μM single dose
# Experimental: The effect of compounds of the present invention on the level of telomerase protein and of long-term treatment of a single dose of Compound 68 on telomerase was tested by exposing cells for various intervals (3-24 h) to 1 μM of the compound and detecting telomerase protein level by western blot analysis with anti-telomerase antibody. […] A time-dependent increase in telomerase was observed, with activation peaking at […] of treatment, and then gradually decreasing.
# [3] = Solubility noted at synthesis; assay type: physicochemical
# Chain of telomerase (Homo sapiens, UniProt O14746) (O14746 whole entry): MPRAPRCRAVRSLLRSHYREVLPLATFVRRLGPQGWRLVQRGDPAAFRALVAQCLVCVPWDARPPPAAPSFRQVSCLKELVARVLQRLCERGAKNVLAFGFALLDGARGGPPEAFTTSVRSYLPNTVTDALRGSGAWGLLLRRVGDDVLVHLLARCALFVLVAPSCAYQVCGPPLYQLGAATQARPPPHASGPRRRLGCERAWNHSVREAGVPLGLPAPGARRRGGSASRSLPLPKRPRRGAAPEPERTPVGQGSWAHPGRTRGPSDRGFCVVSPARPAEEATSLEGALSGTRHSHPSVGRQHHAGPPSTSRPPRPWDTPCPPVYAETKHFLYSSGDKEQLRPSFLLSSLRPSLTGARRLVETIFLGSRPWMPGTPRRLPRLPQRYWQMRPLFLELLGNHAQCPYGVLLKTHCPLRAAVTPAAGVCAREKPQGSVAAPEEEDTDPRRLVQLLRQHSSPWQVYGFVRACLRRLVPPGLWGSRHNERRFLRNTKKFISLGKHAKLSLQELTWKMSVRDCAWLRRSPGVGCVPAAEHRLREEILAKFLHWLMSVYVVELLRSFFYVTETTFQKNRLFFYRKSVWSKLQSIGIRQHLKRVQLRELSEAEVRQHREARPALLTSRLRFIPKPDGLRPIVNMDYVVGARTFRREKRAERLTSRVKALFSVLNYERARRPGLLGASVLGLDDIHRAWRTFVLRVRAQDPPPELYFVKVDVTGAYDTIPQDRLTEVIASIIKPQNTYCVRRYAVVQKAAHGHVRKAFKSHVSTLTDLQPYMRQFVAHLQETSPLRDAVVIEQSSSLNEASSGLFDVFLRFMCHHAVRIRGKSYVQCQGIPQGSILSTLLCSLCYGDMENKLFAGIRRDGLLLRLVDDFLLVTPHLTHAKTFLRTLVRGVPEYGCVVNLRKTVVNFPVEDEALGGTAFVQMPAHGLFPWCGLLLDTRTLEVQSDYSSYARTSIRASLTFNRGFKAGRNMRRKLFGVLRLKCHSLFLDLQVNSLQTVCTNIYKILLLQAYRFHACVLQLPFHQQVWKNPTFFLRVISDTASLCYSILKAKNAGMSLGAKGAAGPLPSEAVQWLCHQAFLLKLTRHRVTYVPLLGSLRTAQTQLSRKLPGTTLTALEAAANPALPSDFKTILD
structure (smiles),measurement,setting,value
"CC[C@@]1(O)C(=O)OCc2c1cc1n(c2=O)Cc2cc3ccccc3nc2-1 [CPT, camptothecin, reference compound]",embryo development after CPT only,embryos; CPT 5 mg/kg plus vehicle,evidence of abnormal development
CC(c1ccc(O)cc1)(c1ccc(O)cc1)c1ccc(O)cc1 [Compound 1],Lifes pan ext. %,C. elegans,30%
COc1ccc(C(C)(c2ccc(OC)cc2)c2ccc(OC)cc2)cc1 [Compound 5],Lifes pan ext. %,C. elegans,12%
Cc1ccc(C(C)(c2ccccc2)c2ccccc2)cc1 [Compound 10],Lifes pan ext. %,C. elegans,−1%
Cc1ccc(C(C)(c2ccc(C)cc2)c2ccc(C)cc2)cc1 [Compound 22],Lifes pan ext. %,C. elegans,21%
COc1ccc(C(C)(c2ccc(-c3cccc4ccccc34)cc2)c2ccc(C3c4ccccc4-c4ccccc43)cc2)cc1 (centres unmarked) [Compound 31],Lifes pan ext. %,C. elegans,23%
CC(c1ccccc1)(c1ccc(-c2cccc3ccccc23)cc1)c1ccc(C2c3ccccc3Oc3ccccc32)cc1 (centres unmarked) [Compound 33],Lifes pan ext. %,C. elegans,−26%
CCOC(=O)COc1ccc(C(C)(c2ccc(OCC(=O)OCC)cc2)c2ccc(OCC(=O)OCC)cc2)cc1 [Compound 42],Lifes pan ext. %,C. elegans,−7%
CC(c1ccccc1)(c1ccccc1)c1ccccc1 [Compound 49],Lifes pan ext. %,C. elegans,16%
COc1ccc(C(c2ccc(-c3c[nH]c4ccccc34)cc2)c2ccc(-c3c[nH]c4ccccc34)cc2)cc1 [Compound 50],Lifes pan ext. %,C. elegans,4%
CC(c1ccc(O)cc1)(c1ccc(O)cc1)c1ccc(-c2ccncc2)cc1 [Compound 53],Lifes pan ext. %,C. elegans,13%
CC(c1ccc(O)cc1)(c1ccc(O)cc1)c1ccc(-c2cccnc2)cc1 [Compound 54],Lifes pan ext. %,C. elegans,15%
Oc1ccc(P(c2ccc(O)cc2)c2ccc(O)cc2)cc1 [Compound 60],Lifespan %,C. elegans; table of scaffold drawing 35,−2%
O=P(c1ccc(O)cc1)(c1ccc(O)cc1)c1ccc(O)cc1 [Compound 61],Lifespan extension (%),C. elegans,30%
same,Lifespan %,C. elegans; table of scaffold drawing 35,30%
COc1ccc(P(c2ccc(OC)cc2)c2ccc(OC)cc2)cc1 [Compound 62],Lifespan extension (%),C. elegans,29%
same,Lifespan %,C. elegans; table of scaffold drawing 35,29%
COc1ccc(P(=O)(c2ccc(OC)cc2)c2ccc(OC)cc2)cc1 [Compound 63],Lifespan %,C. elegans; table of scaffold drawing 35,0%
c1ccc(P(c2ccccc2)c2ccccc2)cc1 [Compound 64],Lifespan %,C. elegans; table of scaffold drawing 35,19%
Cc1ccc(P(c2ccc(C)cc2)c2ccc(C)cc2)cc1 [Compound 65],Lifespan %,C. elegans; table of scaffold drawing 35,42%
Brc1ccc(N(c2ccc(Br)cc2)c2ccc(Br)cc2)cc1 [Compound 66],Lifespan %,C. elegans; table of scaffold drawing 35,19%
"CC(c1cc(Br)c(O)c(Br)c1)(c1cc(Br)c(O)c(Br)c1)c1cc(Br)c(O)c(Br)c1 [Compound 68, 1,1,1-tris(4-hydroxy-3,5-dibromo-phenyl)-ethane]",enhancement of telomerase activity in RPE cells,telomerase [1],30 fold
same,"level of telomerase full-length and splice variant mRNA, fold of control","telomerase mRNA; single dose of 1 mM, 1-24 h",up to 4.5 fold
same,staining of telomerase in the endometrial tissue (immunohistochemistry),telomerase [2],significant increase
same,degradation of the endometrial epithelial layer,telomerase [2]; female rats in diestrus,prevented the degradation of the endometrial epithelial layer
same,Lifespan extension (%),C. elegans,13%
same,Lifespan %,C. elegans; table of scaffold drawing 36,13%
same,embryo development after CPT plus compound,embryos; CPT 5 mg/kg then compound 6 mg/kg,developed normally
same,time of peak telomerase activation,telomerase protein,1 to 3 h
same,telomerase protein level,"telomerase protein; 3-24 h, western blot",increased telomerase protein level
same,level of telomerase compared to vehicle-treated cells after 24 h,telomerase protein; 24 h,only slightly higher
CC(c1ccc(O)c(Br)c1)(c1ccc(O)c(Br)c1)c1ccc(O)c(Br)c1 [Compound 69],Lifespan %,C. elegans; table of scaffold drawing 36,−5%
COc1c(Br)cc(C(C)(c2cc(Br)c(OC)c(Br)c2)c2cc(Br)c(OC)c(Br)c2)cc1Br [Compound 70],Lifespan %,C. elegans; table of scaffold drawing 36,41%
CC(c1ccc(O)c([N+](=O)[O-])c1)(c1ccc(O)c([N+](=O)[O-])c1)c1ccc(O)c([N+](=O)[O-])c1 [Compound 71],Lifespan %,C. elegans; table of scaffold drawing 36,8%
COc1ccc(C(C)(c2ccc(OC)c([N+](=O)[O-])c2)c2ccc(OC)c([N+](=O)[O-])c2)cc1[N+](=O)[O-] [Compound 72],Lifespan %,C. elegans; table of scaffold drawing 36,4%
COc1c(I)cc(C(C)(c2cc(I)c(OC)c(I)c2)c2cc(I)c(OC)c(I)c2)cc1I [Compound 73],Lifespan %,C. elegans; table of scaffold drawing 36,−7%
CN1CCN(Cc2cc(C(C)(c3cc(CN4CCN(C)CC4)c(O)c(CN4CCN(C)CC4)c3)c3cc(CN4CCN(C)CC4)c(O)c(CN4CCN(C)CC4)c3)cc(CN3CCN(C)CC3)c2O)CC1 [Compound 78],Lifespan extension (%),C. elegans,36%
same,Lifespan %,C. elegans; table of scaffold drawing 36,36%
same,solubility in ethanol,[3]; ethanol,Soluble
same,solubility in water,[3]; water,very good solubility
"Cc1c2oc3c(C)ccc(C(=O)N[C@@H]4C(=O)N[C@H](C(C)C)C(=O)N5CCC[C@H]5C(=O)N(C)CC(=O)N(C)[C@@H](C(C)C)C(=O)O[C@@H]4C)c3nc-2c(C(=O)N[C@@H]2C(=O)N[C@H](C(C)C)C(=O)N3CCC[C@H]3C(=O)N(C)CC(=O)N(C)[C@@H](C(C)C)C(=O)O[C@@H]2C)c(N)c1=O [actinomycin D, reference compound] (I: T[dV]P[Sar][NMeV] / II: T[dV]P[Sar][NMeV]; ester I:1-I:C, II:1-II:C; linker I:N-II:N via Actinocin(9to1))",effect of addition during compound treatment on activation of telomerase expression,telomerase mRNA; added for 3 h during treatment with Compound 68,abolished the activation of telomerase expression
